Like-named read-outs stand apart in the source and are kept apart here.
Key:
[1] = biological target: human JAK3 (Homo sapiens (Human), UniProt P52333); assay: JAK3 TR-FRET kinase assay; type: biochemical; conditions: JAK3 0.0125 nM
[2] = biological target: human JAK2 (Homo sapiens (Human), UniProt O60674); assay: JAK2 TR-FRET kinase assay; type: biochemical; conditions: JAK2 0.025 nM
[3] = biological target: human JAK1 (Homo sapiens (Human), UniProt P23458); assay: JAK1 TR-FRET kinase assay; type: biochemical
[4] = biological target: TYK2 JH2 domain (Homo sapiens (Human), UniProt P29597); assay: TYK2 JH2 NanoBRET assay; type: binding; conditions: Table 20, read-out: TYK2 IC50
Method in brief: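 HEK293T cells transiently expressing NanoLuc-TYK2 JH2 fusion, incubated 2 h with compound and NanoBRET K10 tracer (0.5 µM final). Target engagement read as acceptor/donor BRET ratio after Nano-Glo substrate plus extracellular NanoLuc inhibitor.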

Sequence of human JAK3 (P52333 whole entry): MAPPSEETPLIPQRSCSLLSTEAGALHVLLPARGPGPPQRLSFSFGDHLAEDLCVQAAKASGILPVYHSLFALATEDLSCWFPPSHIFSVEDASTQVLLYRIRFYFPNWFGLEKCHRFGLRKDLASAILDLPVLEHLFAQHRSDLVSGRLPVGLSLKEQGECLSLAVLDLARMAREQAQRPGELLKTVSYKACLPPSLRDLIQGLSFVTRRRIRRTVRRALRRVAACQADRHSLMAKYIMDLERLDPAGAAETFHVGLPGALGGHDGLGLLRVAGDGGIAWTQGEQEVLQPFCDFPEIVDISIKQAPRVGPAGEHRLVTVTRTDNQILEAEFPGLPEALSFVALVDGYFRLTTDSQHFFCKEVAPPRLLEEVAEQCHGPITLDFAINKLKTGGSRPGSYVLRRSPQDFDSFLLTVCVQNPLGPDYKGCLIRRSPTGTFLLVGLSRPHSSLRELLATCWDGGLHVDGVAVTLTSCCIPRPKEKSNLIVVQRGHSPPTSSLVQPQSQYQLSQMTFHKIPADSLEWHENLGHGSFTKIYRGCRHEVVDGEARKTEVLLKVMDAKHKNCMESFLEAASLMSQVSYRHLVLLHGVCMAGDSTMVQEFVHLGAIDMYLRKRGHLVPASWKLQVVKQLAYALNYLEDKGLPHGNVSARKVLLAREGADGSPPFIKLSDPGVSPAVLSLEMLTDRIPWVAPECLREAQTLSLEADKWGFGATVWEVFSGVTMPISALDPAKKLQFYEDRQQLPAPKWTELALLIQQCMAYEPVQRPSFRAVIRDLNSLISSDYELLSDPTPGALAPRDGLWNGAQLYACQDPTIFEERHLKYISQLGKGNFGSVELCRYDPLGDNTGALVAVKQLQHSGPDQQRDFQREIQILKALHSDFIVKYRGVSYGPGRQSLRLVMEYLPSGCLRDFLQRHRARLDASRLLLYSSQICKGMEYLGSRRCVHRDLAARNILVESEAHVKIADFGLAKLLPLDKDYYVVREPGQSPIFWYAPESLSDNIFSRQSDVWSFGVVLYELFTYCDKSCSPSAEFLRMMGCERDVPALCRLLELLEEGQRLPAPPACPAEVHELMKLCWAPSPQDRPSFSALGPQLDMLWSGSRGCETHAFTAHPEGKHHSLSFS
Sequence of human JAK2 (O60674 whole entry): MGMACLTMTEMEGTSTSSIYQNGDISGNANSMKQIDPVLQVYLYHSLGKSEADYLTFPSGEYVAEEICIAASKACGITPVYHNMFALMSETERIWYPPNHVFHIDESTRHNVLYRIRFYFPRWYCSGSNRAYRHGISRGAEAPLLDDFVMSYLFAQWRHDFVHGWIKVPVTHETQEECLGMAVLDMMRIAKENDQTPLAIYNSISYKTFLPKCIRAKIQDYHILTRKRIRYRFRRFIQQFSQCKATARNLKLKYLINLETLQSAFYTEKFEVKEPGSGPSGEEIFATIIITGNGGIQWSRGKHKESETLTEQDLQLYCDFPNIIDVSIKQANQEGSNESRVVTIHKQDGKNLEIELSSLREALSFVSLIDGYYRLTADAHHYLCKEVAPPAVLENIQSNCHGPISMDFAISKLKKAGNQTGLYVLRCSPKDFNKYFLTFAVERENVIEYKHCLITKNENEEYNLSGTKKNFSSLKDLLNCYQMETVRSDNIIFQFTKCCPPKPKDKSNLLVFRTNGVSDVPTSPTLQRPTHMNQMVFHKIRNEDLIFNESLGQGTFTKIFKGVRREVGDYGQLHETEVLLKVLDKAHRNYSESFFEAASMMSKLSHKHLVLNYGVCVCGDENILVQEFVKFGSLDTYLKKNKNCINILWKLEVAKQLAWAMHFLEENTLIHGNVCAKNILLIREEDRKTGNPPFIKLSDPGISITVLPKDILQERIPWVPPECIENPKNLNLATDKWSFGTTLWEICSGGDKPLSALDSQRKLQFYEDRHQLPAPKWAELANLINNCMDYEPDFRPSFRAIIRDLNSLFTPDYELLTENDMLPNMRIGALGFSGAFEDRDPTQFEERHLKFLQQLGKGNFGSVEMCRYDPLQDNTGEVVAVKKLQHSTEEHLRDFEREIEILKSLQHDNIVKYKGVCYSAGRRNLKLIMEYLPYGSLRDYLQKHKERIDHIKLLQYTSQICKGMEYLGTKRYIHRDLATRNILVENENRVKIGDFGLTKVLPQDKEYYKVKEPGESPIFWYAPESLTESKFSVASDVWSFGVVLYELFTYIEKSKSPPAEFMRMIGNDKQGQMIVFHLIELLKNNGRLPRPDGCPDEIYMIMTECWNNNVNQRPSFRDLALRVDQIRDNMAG
Sequence of human JAK1 (P23458 whole entry, the tested form may be a part): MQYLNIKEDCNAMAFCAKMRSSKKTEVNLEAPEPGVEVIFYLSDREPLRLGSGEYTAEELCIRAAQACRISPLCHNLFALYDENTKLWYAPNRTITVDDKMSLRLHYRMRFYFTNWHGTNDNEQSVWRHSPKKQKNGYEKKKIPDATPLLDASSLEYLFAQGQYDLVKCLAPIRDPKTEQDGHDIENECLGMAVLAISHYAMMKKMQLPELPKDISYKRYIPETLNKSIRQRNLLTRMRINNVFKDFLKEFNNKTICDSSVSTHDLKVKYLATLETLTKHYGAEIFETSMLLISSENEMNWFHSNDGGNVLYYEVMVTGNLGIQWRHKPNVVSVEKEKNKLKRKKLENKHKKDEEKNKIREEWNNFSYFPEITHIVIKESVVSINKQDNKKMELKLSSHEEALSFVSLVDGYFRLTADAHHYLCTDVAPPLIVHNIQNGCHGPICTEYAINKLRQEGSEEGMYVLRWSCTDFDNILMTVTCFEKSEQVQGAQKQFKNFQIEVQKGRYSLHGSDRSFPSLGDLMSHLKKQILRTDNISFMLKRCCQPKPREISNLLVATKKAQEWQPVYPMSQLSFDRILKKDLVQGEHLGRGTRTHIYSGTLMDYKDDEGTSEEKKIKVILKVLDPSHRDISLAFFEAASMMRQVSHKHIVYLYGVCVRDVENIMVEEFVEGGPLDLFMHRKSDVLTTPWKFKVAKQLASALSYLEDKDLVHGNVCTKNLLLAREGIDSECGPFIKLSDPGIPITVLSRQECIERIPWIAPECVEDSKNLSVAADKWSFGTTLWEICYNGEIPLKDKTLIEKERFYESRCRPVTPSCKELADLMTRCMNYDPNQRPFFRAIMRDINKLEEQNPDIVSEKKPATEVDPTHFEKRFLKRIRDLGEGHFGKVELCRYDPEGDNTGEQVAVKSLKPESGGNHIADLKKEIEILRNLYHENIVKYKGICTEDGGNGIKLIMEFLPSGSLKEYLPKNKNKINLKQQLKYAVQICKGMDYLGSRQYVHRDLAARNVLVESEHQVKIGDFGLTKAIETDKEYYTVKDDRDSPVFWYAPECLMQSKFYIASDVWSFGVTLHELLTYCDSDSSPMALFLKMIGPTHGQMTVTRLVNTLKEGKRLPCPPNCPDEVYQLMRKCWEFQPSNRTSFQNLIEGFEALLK
Sequence of TYK2 JH2 domain (P29597 589-875): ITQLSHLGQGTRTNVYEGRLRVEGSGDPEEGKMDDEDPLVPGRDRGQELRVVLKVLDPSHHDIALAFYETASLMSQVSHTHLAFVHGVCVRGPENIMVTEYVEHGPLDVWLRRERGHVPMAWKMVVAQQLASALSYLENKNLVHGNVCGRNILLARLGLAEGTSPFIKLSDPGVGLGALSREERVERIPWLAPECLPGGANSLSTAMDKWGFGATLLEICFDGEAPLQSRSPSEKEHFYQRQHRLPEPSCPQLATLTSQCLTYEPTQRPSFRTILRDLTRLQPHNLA

| SMILES | IC50 [1] [nM] | IC50 [2] [nM] | IC50 ([3]; TR-FRET, JAK1 2.5 nM) [nM] | IC50 [4] [nM] | IC50 [3] [nM] |
| --- | --- | --- | --- | --- | --- |
| CCC(=O)c1cnc(Nc2ccc(C(C)N(C)C)cn2)cc1Nc1cccc(-c2ncn(C)n2)c1OC (stereo not drawn) [Compound 9I] | ≥ 500 | ≥ 500 | ≥ 500 | < 5 |  |
| CCC(=O)c1cnc(Nc2ccc(CN3CCCC3)cn2)cc1Nc1cccc(-c2ncn(C)n2)c1OC [Compound 9II] | ≥ 500 | ≥ 500 | ≥ 500 | < 5 |  |
| CCC(=O)c1cnc(Nc2cnc(OCCN)cn2)cc1Nc1cccc(-c2ncn(C)n2)c1OC [Compound 18MM] | ≥ 500 | ≥ 500 | ≥ 500 | < 5 |  |
| CCC(=O)c1cnc(Nc2ccc3c(c2)COB3O)cc1Nc1cccc(-c2ncn(C)n2)c1OC [Compound 15BB] | ≥ 500 | ≥ 500 | ≥ 500 | 5 to 50 |  |
| CCC(=O)c1cnc(Nc2ccnc(OCCCN(C)C)n2)cc1Nc1cccc(-c2ncn(C)n2)c1OC [Compound 18HH] | ≥ 500 | ≥ 500 | ≥ 500 | < 5 |  |
| CCC(=O)c1cnc(Nc2ccc(OCCCO)nn2)cc1Nc1cccc(-c2ncn(C)n2)c1OC [Compound 18N] | ≥ 500 | ≥ 500 | ≥ 500 | < 5 |  |
| CCC(=O)c1cnc(Nc2ccn(C[C@H]3C[C@@H](O)C3)n2)cc1Nc1cccc(-c2ncn(C)n2)c1OC [Compound 21W] | ≥ 500 | ≥ 500 | ≥ 500 | 5 to 50 |  |
| CCC(=O)c1cnc(Nc2ncc(OCC3COC3)cc2F)cc1Nc1cccc(-c2ncn(C)n2)c1OC [Compound 18CCCC] | ≥ 500 | ≥ 500 | ≥ 500 | 50 to 500 |  |
| CCC(=O)c1cnc(Nc2cc(CCN3CCCC3)ncn2)cc1Nc1cccc(-c2ncn(C)n2)c1OC [Compound 11G] | 50 to 500 | ≥ 500 | ≥ 500 | < 5 |  |
| CCC(=O)c1cnc(Nc2ccc(S(C)(=O)=O)cn2)cc1Nc1ccc(C(=O)N2CCCC2)cc1OC [Compound 13W] | 50 to 500 | 50 to 500 | ≥ 500 | 50 to 500 |  |
| CCC(=O)c1cnc(Nc2ccc(-c3ncn(C)n3)cn2)cc1Nc1nccc(-c2ncn(C)n2)c1OC [Compound 15M] | ≥ 500 | ≥ 500 | ≥ 500 | 5 to 50 |  |
| CCC(=O)c1cnc(Nc2cc(OCCOC)n(C)n2)cc1Nc1cccc(-c2ncn(C)n2)c1OC [Compound 24A, 1-(4-((2-methoxy-3-(1-methyl-1H-1,2,4-triazol-3-yl)phenyl)amino)-6-((5-(2-methoxyethoxy)-1-methyl-1H-pyrazol-3-yl)amino)pyridin-3-yl)propan-1-one] | 50 to 500 | 50 to 500 |  | < 5 | > 500 |
| CCC(=O)c1cnc(Nc2ccc(OCC3COC3)cn2)cc1Nc1cccc(-c2ncn(C)n2)c1OC [Compound 18AA] | 50 to 500 | 50 to 500 | ≥ 500 | < 5 |  |
| CCC(=O)c1cnc(Nc2cc(-c3cnn(C)c3)ccn2)cc1Nc1cccc(-c2ncn(C)n2)c1OC [Compound 15G] | ≥ 500 | ≥ 500 | ≥ 500 | < 5 |  |
| CCC(=O)c1cnc(Nc2ccnc(OC3CCN(C)CC3)n2)cc1Nc1cccc(-c2ncn(C)n2)c1OC [Compound 18II] | ≥ 500 | ≥ 500 | ≥ 500 | 5 to 50 |  |
| CCC(=O)c1cnc(Nc2cnc(CCNC)cn2)cc1Nc1cccc(-c2ncn(C)n2)c1OC [Compound 11H] | ≥ 500 | ≥ 500 | ≥ 500 | 50 to 500 |  |
| CCC(=O)c1cnc(Nc2ccc(-c3ncn(C)n3)cn2)cc1Nc1cccc(-c2ncn(C)n2)c1OC [Compound 15C] | ≥ 500 | ≥ 500 | ≥ 500 | < 5 |  |
| COc1c(Nc2cc(Nc3ccc(OCCN(C)C)cn3)ncc2C(=O)C2CC2)cccc1-c1ncn(C)n1 [Compound 18T] | ≥ 500 | ≥ 500 | ≥ 500 | 5 to 50 |  |
| CCC(=O)c1cnc(Nc2ccn([C@H]3C[C@H](OC)C3)n2)cc1Nc1cccc(-c2ncn(C)n2)c1OC [Compound 21L] | ≥ 500 | ≥ 500 | ≥ 500 | 5 to 50 |  |
| CCC(=O)c1cnc(Nc2cc(CN3CCCC3)sn2)cc1Nc1cccc(-c2ncn(C)n2)c1OC [Compound 21I] | 50 to 500 | 50 to 500 | ≥ 500 | < 5 |  |
| CCC(=O)c1cnc(Nc2cnc(O[C@@H]3CCN(C)C[C@@H]3F)cn2)cc1Nc1cccc(-c2ncn(C)n2)c1OC [Compound 18SSS] | ≥ 500 | ≥ 500 | ≥ 500 | 5 to 50 |  |

Source: patent US20230295119A1, “SUBSTITUTED PYRIDINES FOR THE TREATMENT OF INFLAMMATORY DISEASES” (GOSSAMER BIO SERVICES, INC., priority 2020, published 2023)
